For 16 compounds, IC50 results are on record in US20260226084A1, “DUAL RAF AND TUBULIN INHIBITORS AND METHODS OF USE THEREOF” (Deciphera Pharmaceuticals, LLC, priority 2023, published 2026).

The target in test [1] is T1, B-Raf kinase (SEQ ID NO: 1) (Homo sapiens, UniProt P15056).
T1 construct: GST (N); purchased Sigma
The experiment in a line: Biochemical Assay for B-Raf (coupled pyruvate kinase/lactate dehydrogenase assay). The following applies: 1 mM ATP; read-out: BRAF (inhibition of biochemical activity, IC50).

In test [2] the test system is HPAF-II cells. Put plainly: HPAF-II Cell Proliferation Assay. The class given is cell-based. The following applies: Homo sapiens, HPAF-II, HPAF-II cells; Table 2; read-out: Inhibition of cell proliferation in HPAF-II (IC50 class). The protocol:
(§1) HPAF-II cells (catalog #CRL-1997) are obtained from the American Type Culture Collect (ATCC, Manassas, VA). Briefly, cells are grown in Minimum Essential Media supplemented with 10% characterized fetal bovine serum (Invitrogen, Carlsbad, CA) and 1% Penicillin/Streptomycin/L-Glutamine at 37° C., 5% CO2, and 95% humidity. Cells are expanded until reaching 70-95% confluency at which point they are sub-cultured or harvested for assay use. A serial dilution of test compound is dispensed into a 384-well black clear bottom plate in triplicate. 750 cells are added per well in 50 μL complete growth medium in the 384-well plate. Plates are incubated for 115 to 120 hours at 37° C., 5% CO2, and 95% humidity. At the end of the incubation, 40 μL of a 440 μM solution of resazurin (Sigma, St. Louis, MO) in PBS is added to each well of the plate and plates are incubated for an additional 18 to 24 hours at 37° C., 5% CO2, and 95% humidity. Plates are read on a Synergy2 or equivalent reader (Biotek, Winooski, VT) using an excitation of 540 nm and an emission of 600 nm. Data is analyzed using Prism software (Graphpad, San Diego, CA) to calculate IC50 values.

Test [3] deals with Pa16c cells. Put plainly: Pa16c Cell Proliferation Assay. Type of test: cell-based. To be noted: Table 2, read-out: Inhibition of cell proliferation in Pa16c (IC50 class). The protocol:
as §1, with “Pa16c” for “HPAF-II”, “cells” for “cells (catalog #CRL-1997)”, “Dr. Channing Der, University of North Carolina at Chapel Hill.” for “the American Type Culture Collect (ATCC, Manassas, VA).”, “Dulbecco's Modified Eagle Medium” for “Minimum Essential Media”, “67” for “115”, “72 h” for “120 hours”

Test [4] concerns the target T2, C-Raf kinase (SEQ ID NO: 2) (Homo sapiens, UniProt P04049, Y340D/Y341D).
T2 construct: C-Raf residues 306-end; Y340D, Y341D with; GST (N); purchased Sigma
The experiment in a line: Biochemical Assay for C-Raf (coupled pyruvate kinase/lactate dehydrogenase assay). To be noted: 1 mM ATP; read-out: CRAF (inhibition of biochemical activity, IC50).

In test [5] the test system is MiaPaca-2 cells. Put plainly: MiaPaca-2 Cell Proliferation Assay. The class given is cell-based. The following applies: Homo sapiens, MIA PaCa-2, MiaPaca-2 cells; Table 2; read-out: Inhibition of cell proliferation in MiaPaca-2 (IC50 class). The procedure:
Miapaca-2 cells (catalog #CRL-1420) are obtained from the American Type Culture Collect (ATTC, Manassas, VA). Briefly, cells were grown in DMVEM supplemented with 10 characterized fetal bovine serum (Invitrogen, Carlsbad, CA), 2.5% New Zealand sourced horse serum and 1 Penicillin/Streptomycin/L-Glutamine at 37° C., 5 CO2, and 95% humidity. Cells are expanded until reaching 70-95% confluency at which point they are sub-cultured or harvested for assay use. A serial dilution of test compound is dispensed into a 96-well black clear bottom plate in triplicate. Three thousand cells are added per well in 200 μL complete growth medium in the 96-well plate. Plates are incubated for 67 to 72 h at 37° C., 5% CO2, and 95% humidity. At the end of the incubation, 40 μL of a 440 μM solution of resazurin (Sigma, St. Louis, MO) in PBS is added to each well of the plate and plates are incubated for an additional 5 to 6 h at 37° C., 5% CO2, and 95% humidity. Plates are read on a Synergy2 or equivalent reader (Biotek, Winooski VT) using an excitation of 540 nm and an emission of 600 nm. Data is analyzed using Prism software (Graphpad, San Diego, CA) to calculate IC50 values.

Test [6] relates to HCT-116 cells. The experiment in a line: HCT-116 Cell Proliferation Assay. The class given is cell-based. The following applies: Homo sapiens, HCT-116, HCT-116 cells; Table 2; read-out: Inhibition of cell proliferation in HCT-116 (IC50 class). The protocol: HCT-116 cells (catalog #CCL-247) are obtained from the American Type Culture Collect (ATCC, Manassas, VA). Briefly, cells are grown in McCoy's 5A supplemented with 10% characterized fetal bovine serum (Invitrogen, Carlsbad, CA) and 1% Penicillin/Streptomycin/L-Glutamine at 37° C., 5% CO2, and 95% humidity. Cells are expanded until reaching 70-95% confluency at which point they are subcultured or harvested for assay use. A serial dilution of test compound is dispensed into a 384-well black clear bottom plate in triplicate. 375 cells are added per well in 50 μL complete growth medium in the 384-well plate. Plates are incubated for 67 to 72 hours at 37° C., 5% CO2, and 95% humidity. At the end of the incubation, 40 μL of a […] solution of resazurin (Sigma, St. Louis, MO) in PBS is added to each well of the plate and plates are incubated for an additional 4 to 5 h at 37° C., 5% CO2, and 95% humidity. Plates are read on a Synergy2 or equivalent reader (Biotek, Winooski, VT) using an excitation of 540 nm and an emission of 600 nm. Data is analyzed using Prism software (Graphpad, San Diego, CA) to calculate IC50 values.

T2 sequence (P04049 307-648 Y340D/Y341D): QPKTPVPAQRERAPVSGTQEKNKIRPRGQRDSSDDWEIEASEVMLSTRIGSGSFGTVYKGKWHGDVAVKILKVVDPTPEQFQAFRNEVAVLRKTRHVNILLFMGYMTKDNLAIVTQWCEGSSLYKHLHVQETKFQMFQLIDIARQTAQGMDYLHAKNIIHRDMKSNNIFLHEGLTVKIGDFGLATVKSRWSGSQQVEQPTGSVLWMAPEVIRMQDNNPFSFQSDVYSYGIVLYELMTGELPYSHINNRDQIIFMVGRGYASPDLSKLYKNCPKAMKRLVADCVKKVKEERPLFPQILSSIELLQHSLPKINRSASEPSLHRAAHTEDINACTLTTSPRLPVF
T1 sequence (P15056 416-766): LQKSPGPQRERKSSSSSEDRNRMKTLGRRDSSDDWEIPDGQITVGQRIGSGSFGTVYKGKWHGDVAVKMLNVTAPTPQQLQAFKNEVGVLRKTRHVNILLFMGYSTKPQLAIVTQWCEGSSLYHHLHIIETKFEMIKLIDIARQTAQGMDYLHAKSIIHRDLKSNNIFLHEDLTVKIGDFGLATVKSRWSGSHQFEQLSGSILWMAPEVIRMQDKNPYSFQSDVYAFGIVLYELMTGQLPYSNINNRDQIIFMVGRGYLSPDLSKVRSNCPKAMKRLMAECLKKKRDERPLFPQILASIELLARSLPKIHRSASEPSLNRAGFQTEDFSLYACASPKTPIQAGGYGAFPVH

Turning to `Cc1ccc(NC(=O)c2cc(C(F)(F)F)cnn2)cc1-c1ccnc(-c2ccnc(NC(=O)C3(F)CC3)c2)c1` [Example 4, N-(3-(2′-(1-fluorocyclopropane-1-carboxamido)-[2,4′-bipyridin]-4-yl)-4-methylphenyl)-5-(trifluoromethyl)pyridazine-3-carboxamide], the IC50 in test [1] is < 100 nM; in test [2], 100 to 500 nM; in test [3], 100 to 500 nM; in test [4] it was < 100 nM; in test [5], 100 to 500 nM; in test [6], 100 to 500 nM.
Turning to `Cc1ccc(NC(=O)c2cncc(C(F)(F)F)n2)cc1-c1cncc(-c2ccnc(NC(=O)C3CC3)c2)c1` [Example 5], the IC50 in test [1] was < 100 nM; in test [2], 1000 to 10000 nM; in test [3], 1000 to 10000 nM; in test [4], < 100 nM; in test [5], 1000 to 10000 nM; in test [6], 1000 to 10000 nM.
As for `COC(=O)Nc1cc(-c2ccnc(-c3cc(NC(=O)c4ccc(C(F)(F)F)nc4)ccc3C)n2)ccn1` [Example 6], the IC50 was < 100 nM in test [1]; 1000 to 10000 nM in test [2]; 1000 to 10000 nM in test [3]; < 100 nM in test [4]; 1000 to 10000 nM in test [5]; 500 to 1000 nM in test [6].
For the compound `Cc1ccc(NC(=O)c2cc(C(F)(F)F)cnn2)cc1-c1ccnc(-c2ccnc(NC(=O)C3(C)CCC3)c2)c1` [Example 7], the IC50 in test [1] lay in the range of 500 to 1000 nM; in test [2] it was 100 to 500 nM; in test [3], 100 to 500 nM; in test [4] it was 100 to 500 nM; in test [5], 100 to 500 nM; in test [6] it was 100 to 500 nM.
For the compound `Cc1ccc(NC(=O)c2cc(C(F)(F)F)cnn2)cc1-c1ccnc(-c2ccnc(NC(=O)C3CCC3)c2)c1` [Example 8], the IC50 in test [1] was < 100 nM; in test [2], < 100 nM; in test [3], < 100 nM; in test [4], < 100 nM; in test [5], 100 to 500 nM; in test [6] it was 100 to 500 nM.
Turning to `COCC(=O)Nc1cc(-c2nccc(-c3cc(NC(=O)c4cc(C(F)(F)F)cnn4)ccc3C)n2)ccn1` [Example 10], the IC50 in test [1] was < 100 nM; in test [2], 500 to 1000 nM; in test [3], 1000 to 10000 nM; in test [4], < 100 nM; in test [5], 1000 to 10000 nM; in test [6] it was 500 to 1000 nM.
For `Cc1ccc(NC(=O)c2cc(C(F)(F)F)cnn2)cc1-c1cccc(-c2cc(NC(=O)C3CC3)ncn2)c1` [Example 11], the IC50 is < 100 nM in test [1]; 500 to 1000 nM in test [2]; 1000 to 10000 nM in test [3]; < 100 nM in test [4]; 500 to 1000 nM in test [5]; 100 to 500 nM in test [6].
For the compound `CC(=O)Nc1cc(-c2cc(-c3cc(NC(=O)c4ccc(C(F)(F)F)nn4)ccc3C)ccn2)ccn1` [Example 13], the IC50 was 500 to 1000 nM in test [1]; < 100 nM in test [2]; < 100 nM in test [3]; 100 to 500 nM in test [4]; < 100 nM in test [5]; < 100 nM in test [6].
In the case of `Cc1ccc(NC(=O)c2cc(C3CC3)cnn2)cc1-c1cc(-c2ccnc(NC(=O)C3CC3)c2)nc(NCCO)n1` [Example 15], the IC50 in test [1] was < 100 nM; in test [2], 1000 to 10000 nM; in test [3] it was 1000 to 10000 nM; in test [4], < 100 nM; in test [5], 100 to 500 nM; in test [6], < 100 nM.
For `Cc1cc(-c2cc(NC(=O)c3cncc(C(C)(F)F)c3)ccc2C)cc(-c2ccnc(NC(=O)C3CC3)c2)n1` [Example 16], the IC50 was < 100 nM in test [1]; 1000 to 10000 nM in test [2]; 1000 to 10000 nM in test [3]; < 100 nM in test [4]; 500 to 1000 nM in test [5]; 100 to 500 nM in test [6].
For the compound `Cc1cc(-c2cc(NC(=O)c3cc(C(F)(F)F)cnn3)ccc2C)cc(-c2ccnc(NC(=O)C3CC3)c2)n1` [Example 18], the IC50 in test [1] was < 100 nM; in test [2], 100 to 500 nM; in test [3], 100 to 500 nM; in test [4], < 100 nM; in test [5], 100 to 500 nM; in test [6], 100 to 500 nM.
On to `Cc1ccc(NC(=O)c2ccc(C(F)(F)F)nn2)cc1-c1ccnc(-c2ccnc(NC(=O)C3CC3)c2)c1` [Example 19], for which the IC50 in test [1] is 100 to 500 nM; in test [2] it was 100 to 500 nM; in test [3], < 100 nM; in test [4] it was < 100 nM; in test [5], 100 to 500 nM; in test [6], 100 to 500 nM.
`CC(=O)Nc1cc(-c2cc(-c3cc(NC(=O)c4ccc(C(F)F)nc4)c(F)cc3C)ccn2)ccn1` [Example 20]: the IC50 in test [1] is < 100 nM; in test [2] it was < 100 nM; in test [3] it was 100 to 500 nM; in test [4], < 100 nM; in test [5] it was < 100 nM; in test [6], 100 to 500 nM.
`Cc1ccc(NC(=O)c2cc(C(F)(F)F)cnn2)cc1-c1ccnc(-c2ccnc(NC(=O)CC3CC3)c2)c1` [Example 22]: the IC50 was 100 to 500 nM in test [1]; < 100 nM in test [2]; < 100 nM in test [3]; < 100 nM in test [4]; 100 to 500 nM in test [5]; 100 to 500 nM in test [6].
In the case of `Cc1ccc(NC(=O)c2ccc(C(F)(F)F)nn2)cc1-c1cncc(-c2cc(NC(=O)C3CC3)ncn2)c1` [Example 23], the IC50 in test [1] was < 100 nM; in test [2], 1000 to 10000 nM; in test [3] it was 1000 to 10000 nM; in test [4], < 100 nM; in test [5], 1000 to 10000 nM; in test [6], 1000 to 10000 nM.
Turning to `CC(=O)Nc1cc(-c2cc(-c3cc(NC(=O)c4ccc(C(F)(F)F)nc4)ccc3C)ccn2)ccn1` [Example 24], the IC50 in test [1] was < 100 nM; in test [2], < 100 nM; in test [3], 100 to 500 nM; in test [4] it was < 100 nM; in test [5], < 100 nM; in test [6], < 100 nM.
